Activity calls are given as the source filed them. The calls are words filed in the database; no cut-off is given here.
Tests used:
[1] = system: MCF7; assay: Induction of DNA double strand breaks in human MCF7 cells assessed as increase in apoptotic nuclei after 24 hrs by TUNEL assay; type: cell-based
[2] = system: MCF7; assay: Binding affinity to DNA in human MCF7 cells assessed as formation of DNA double strand breaks after 24 hrs by neutral comet assay; type: cell-based
[3] = system: MCF7; assay: Induction of DNA double strand breaks in human MCF7 cells assessed as increase in H2AX to gamma-H2AX ratio at near IC50 after 24 hrs by Western blot analysis relative to control; type: cell-based
[4] = Cytotoxicity against human HaCaT cells assessed as cell growth inhibition after 24 hrs by MTT assay; type: toxicity, cell-based
[5] = system: MCF7; assay: Antiproliferative activity against human MCF7 cells assessed as reduction in colony formation at 8 to 16 nM after 21 days by crystal violet staining based clonogenic assay; type: functional, cell-based
[6] = Cell cycle arrest in human MCF7 cells assessed as G0/G1 phase at 12 nM after 24 hrs by propidium iodide staining based FACS analysis (reference value: 43.9%); type: functional
[7] = Cytotoxicity against human HCT116 cells assessed as cell growth inhibition after 24 hrs by MTT assay; type: functional, cell-based; settings: HCT-116, 24 h
[8] = system: MCF7; assay: Induction of DNA damage-mediated apoptosis in human MCF7 cells assessed as downregulation of HDAC1 after 24 hrs by DAPI staining based immunocytochemistry analysis; type: cell-based
[9] = system: MCF7; assay: Induction of apoptosis in human MCF7 cells assessed as late apoptotic cells at 12 nM after 24 hrs by Annexin V-FITC/propidium iodide-dual staining based FACS analysis (reference value: 0.1%); type: functional
[10] = organism: Bos taurus; assay: Binding affinity to calf thymus DNA assessed as decrease in […] at 50 uM measured at 260 nm by UV-Vis spectrophotometric analysis
[11] = system: MCF7; assay: Induction of DNA double strand breaks in human MCF7 cells assessed as activation of phosphorylated p53 at ser15 residue after 24 hrs immunoblot analysis; type: cell-based
[12] = Cell cycle arrest in human MCF7 cells assessed as G2/M phase at 8 nM after 24 hrs by propidium iodide staining based FACS analysis (reference value: 28.3%); type: functional
[13] = system: MCF7; assay: Induction of DNA damage-mediated apoptosis in human MCF7 cells assessed as decrease in HDAC1 expression in cytoplasmic fraction at 8 to 16 nM after 24 hrs by immunoblot analysis; type: cell-based
[14] = system: MCF7; assay: Induction of DNA damage-mediated apoptosis in human MCF7 cells assessed as cleavage of caspase-3 after 24 hrs by immunoblot analysis; type: cell-based
[15] = system: MCF7; assay: Binding affinity to DNA in human MCF7 cells assessed as formation of DNA double strand breaks after 24 hrs by alkaline comet assay; type: cell-based
[16] = system: MCF7; assay: Induction of DNA damage-mediated apoptosis in human MCF7 cells assessed as activation of p38 at 12 nM up to 4 hrs by immunoblot analysis; type: cell-based
[17] = system: MCF7; assay: Induction of apoptosis in human MCF7 cells assessed as late apoptotic cells at 8 nM after 24 hrs by Annexin V-FITC/propidium iodide-dual staining based FACS analysis (reference value: 0.1%); type: functional
[18] = system: MCF7; assay: Induction of DNA damage-mediated apoptosis in human MCF7 cells assessed as increase in HDAC3 expression in cytoplasmic fraction at 8 to 16 nM after 24 hrs by immunoblot analysis; type: cell-based
[19] = system: MCF7; assay: Binding affinity to DNA in human MCF7 cells assessed as formation of nuclear DNA double strand breaks at 12 nM after 24 hrs by DAPI-staining based fluorescence microscopic analysis; type: cell-based
[20] = organism: Bos taurus; assay: Binding affinity to calf thymus DNA assessed as DNA positive band formation at 1:1 compound to DNA ratio by circular dichroism method
[21] = system: MCF7; assay: Induction of DNA damage-mediated apoptosis in human MCF7 cells assessed as increase in cleaved caspase-3 level at 8 to 16 nM after 24 hrs by DAPI staining based immunocytochemistry analysis; type: cell-based
[22] = system: MCF7; assay: Induction of apoptosis in human MCF7 cells assessed as early apoptotic cells at 16 nM after 24 hrs by Annexin V-FITC/propidium iodide-dual staining based FACS analysis (reference value: 2.3%); type: functional
[23] = Cytotoxicity against human SKBR3 ER negative, PR negative,HER2 positive cells assessed as cell growth inhibition after 24 hrs by MTT assay; type: functional, cell-based; settings: SK-BR-3, 24 h
[24] = Cytotoxicity against human MDA-MB-231 ER negative, PR negative,HER2 negative cells assessed as cell growth inhibition after 24 hrs by MTT assay; type: functional, cell-based; settings: MDA-MB-231, 24 h
[25] = system: MCF7; assay: Induction of DNA damage-mediated apoptosis in human MCF7 cells assessed as decrease in HDAC2 levels in nuclear fraction at 8 to 16 nM after 24 hrs by immunoblot analysis; type: cell-based
[26] = system: MCF7; assay: Induction of DNA damage-mediated apoptosis in human MCF7 cells assessed as increase in Bax/Bcl2 ratio after 24 hrs by immunoblot analysis; type: cell-based
[27] = Cell cycle arrest in human MCF7 cells assessed as G2/M phase at 12 nM after 24 hrs by propidium iodide staining based FACS analysis (reference value: 28.3%); type: functional
[28] = system: MCF7; assay: Induction of DNA double strand breaks in human MCF7 cells assessed as H2AX phosphorylation at near IC50 after 24 hrs by Western blot analysis; type: cell-based
[29] = system: MCF7; assay: Disruption of mitochondrial membrane potential in human MCF7 cells assessed as decrease in red/green fluorescence ratio at 8 to 16 nM after 24 hrs by JC1-staining based fluorescent microscopic analysis; type: functional, cell-based
[30] = system: MCF7; assay: Induction of DNA damage-mediated apoptosis in human MCF7 cells assessed as delocalization of HDAC3 from nuclear to cytoplasm at 8 to 16 nM after 24 hrs by DAPI staining based immunocytochemistry analysis; type: cell-based
[31] = system: MCF7; assay: Induction of DNA double strand breaks in human MCF7 cells assessed as increase in H2AX to gamma-H2AX ratio at near IC50 after 24 hrs by DAPI staining-based immunocytochemistry analysis relative to control; type: cell-based
[32] = system: MCF7; assay: Induction of DNA damage-mediated apoptosis in human MCF7 cells assessed as increase in E2F1 expression in nuclear fraction after 24 hrs by immunoblot analysis; type: cell-based
[33] = system: MCF7; assay: Antiproliferative activity against human MCF7 cells assessed as effect on cellular morphology after 24 hrs by phase contrast microscopic method; type: functional, cell-based
[34] = system: MCF7; assay: (§1) Cytotoxicity against human MCF7 ER positive, PR positive/negative,HER2 negative cells assessed as cell growth inhibition after 24 hrs by MTT assay; type: functional, cell-based
[35] = as §1; type: functional, cell-based; settings: MCF7, 24 h
[36] = Cytotoxicity against human HepG2 cells assessed as cell growth inhibition after 24 hrs by MTT assay; type: functional, cell-based; settings: HepG2, 24 h
[37] = Cytotoxicity against human WI38 cells assessed as cell growth inhibition after 24 hrs by MTT assay; type: toxicity, cell-based, WI-38
[38] = system: Escherichia coli; assay: Induction of Escherichia coli supercoiled pBR322 DNA cleavage assessed as increase in open circular form of DNA band after 3 hrs by ethidium bromide staining based agarose gel electrophoresis method
[39] = system: MCF7; assay: Induction of apoptosis in human MCF7 cells at IC50 after 24 hrs by Annexin V/7AAD-dual staining based fluorescent microscopic analysis; type: functional

Activity [10]: Active
Activity [20]: Active
Activity [38]: Dose-dependent effect
SMILES: O=c1cc(OCc2ccccc2)c2ccc3ccccc3c2[nH]1
Activity [1]: Dose-dependent effect
Activity [2]: Dose-dependent effect
fold change (FC) [3]: 6.3
IC50 at 24 h [4]: > 100 µM
Activity [5]: Active
Activity [6]: 58.1%
IC50 [7]: 0.0441 µM
Activity [8]: Dose-dependent effect
Activity [9]: 5.8%
Activity [11]: Dose-dependent effect
Activity [12]: 19%
Activity [13]: Active
Activity [14]: Dose-dependent effect
Activity [15]: Dose-dependent effect
Activity [16]: Active
Activity [17]: 7.2%
Activity [18]: Active
Activity [19]: Active
Activity [21]: Active
Activity [22]: 43.5%
IC50 [23]: 0.0237 µM
IC50 [24]: 0.0629 µM
Activity [25]: Active
Activity [26]: Dose-dependent effect
Activity [27]: 16.2%
Activity [28]: Active
Activity [29]: Active
Activity [30]: Active
fold change (FC) [31]: 11
Activity [32]: Active
Activity [33]: Dose-dependent effect
growth inhibition (GI) [34]: Dose-dependent effect
IC50 [35]: 0.012 µM
IC50 [36]: 37 µM
IC50 at 24 h [37]: > 100 µM
Activity [39]: 44.78%
